Data: US12053451B2, “Arginase inhibitors and their therapeutic applications” (OncoArendi Therapeutics S.A., priority 2016, dated 2024)
Counter-ions that a name gives are not always drawn.

Tests used:
[1] = target: T1, recombinant human arginase 2 (Homo sapiens, UniProt P78540); assay: Human arginase activity assay (urea measurement), arginase 2; assay type: biochemical; conditions: for selected examples class estimated from % of inhibition at 1 μM and 100 μM, * = most potent diastereoisomer or mixture of diastereoisomers, read-out: Activity Class (ARG II)
T1 construct: made in house; host or cells: CHO
T1 sequence (P78540 23-354): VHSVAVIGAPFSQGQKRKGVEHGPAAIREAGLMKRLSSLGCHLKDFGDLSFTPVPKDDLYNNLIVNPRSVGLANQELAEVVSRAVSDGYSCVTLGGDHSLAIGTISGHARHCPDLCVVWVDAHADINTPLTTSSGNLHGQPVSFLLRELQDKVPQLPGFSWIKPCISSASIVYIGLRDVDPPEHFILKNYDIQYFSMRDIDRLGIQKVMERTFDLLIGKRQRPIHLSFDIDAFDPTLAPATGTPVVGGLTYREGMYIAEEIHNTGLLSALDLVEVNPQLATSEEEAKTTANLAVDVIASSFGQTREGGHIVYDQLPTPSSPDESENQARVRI
Description: (§1) Human Arginase Activity Assay
An enzymatic assay with recombinant human arginases 1 (Biolegend, Cat. No. 552502) and 2 (homemade in eukaryotic expression system of CHO, purified by FPLC) was used in order to assess inhibitory activity of the compounds. The assay was run in the 96-well plate format, each reaction in the total volume of 100 uL. The assay is based on urea measurement, which is a product of L-arginine enzymatic degradation. (Baggio et al. J Pharmacol. Exp. Ther. 1999, 290, 1409-1416). The color product is developed by adding a mixture of reagent A (4 mM oPA in 50 mM boric acid in 1M sulfuric acid, 0.03% Brij-35) and reagent B (4 mM NED in 50 mM boric acid in 1M sulfuric acid, 0.03% Brij-35) in equal proportions. The absorbance for each well was measured at 530 nm.
(§2) Briefly, to each well of a 96-well microtiter plate 40 μL of enzyme in the reaction assay buffer (pH 7.4, 100 mM sodium phosphate buffer, 130 mM NaCl, 1 mg/mL albumin), 50 μL of the test compound solution and 10 μL of enzyme substrate solution (L-arginine hydrochloride, natural pH 5.6, final concentration 20 mM and a cofactor—manganese chloride, final concentration 150 μM) was added. For positive control, only the enzyme and substrate were used, the negative controls contained substrate solution with assay buffer. After incubating the microtiter plate at 37° C. for 60 min 150 μL of mixed reagents A and B was added to each well to stop the reaction. Absorbance was measured (λ=530 nm) 20 minutes later, after color development. The urea production in the absence of any compound was considered the maximum arginase activity. The absorbance in the absence of arginase (background) was subtracted from all the values. The normalized OD was used to generate a concentration-response curve by plotting the percent of inhibition against log[concentration] of the compound and using regression analysis (GraphPad Prism 7.0) to compute the IC50 values.
For selected examples the activity class for ARG2 was estimated based on % of inhibition for 1 μM and 100 μM concentration of tested compounds.

[2] = target: T2, recombinant human arginase 1 (Homo sapiens, UniProt P05089); assay: Human arginase activity assay (urea measurement), arginase 1; assay type: biochemical; conditions: recombinant human arginase 1, pH 7.4, 37° C., 60 min; * = value for the most potent diastereoisomer or the mixture of diastereoisomers; read-out: Activity Class (ARG I)
T2 construct: purchased Biolegend 552502
T2 sequence (P05089 1-322): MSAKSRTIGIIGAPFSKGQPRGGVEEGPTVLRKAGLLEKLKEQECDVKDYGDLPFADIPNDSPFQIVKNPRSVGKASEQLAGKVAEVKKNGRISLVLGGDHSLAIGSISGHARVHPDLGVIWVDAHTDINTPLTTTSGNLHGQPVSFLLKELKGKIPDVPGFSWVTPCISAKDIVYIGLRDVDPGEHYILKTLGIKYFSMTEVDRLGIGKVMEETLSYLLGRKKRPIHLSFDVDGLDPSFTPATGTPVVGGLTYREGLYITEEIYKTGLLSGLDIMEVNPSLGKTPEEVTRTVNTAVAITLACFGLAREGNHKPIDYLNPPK
Description: as §1
The assay was run in the 96-well plate format, each reaction in the total volume of 100 uL. The assay is based on urea measurement, which is a product of L-arginine enzymatic degradation. […] The color product is developed by adding a mixture of reagent A (4 mM oPA in 50 mM boric acid in 1M sulfuric acid, 0.03% Brij-35) and reagent B (4 mM NED in 50 mM boric acid in 1M sulfuric acid, 0.03% Brij-35) in equal proportions. The absorbance for each well was measured at 530 nm.
as §2, with “For” for “Briefly, to each well of a 96-well microtiter plate 40 μL of enzyme in the reaction assay buffer (pH 7.4, 100 mM sodium phosphate buffer, 130 mM NaCl, 1 mg/mL albumin), 50 μL of the test compound solution and 10 μL of enzyme substrate solution (L-arginine hydrochloride, natural pH 5.6, final concentration 20 mM and a cofactor—manganese chloride, final concentration 150 μM) was added. For”

| Structure (SMILES) | IC50 [1] [µM] | IC50 [2] [µM] |
| --- | --- | --- |
| NC1(C(=O)O)CCC(CCB(O)O)C1 (racemic) [Example 1, 1-amino-3-(2-boronoethyl)cyclopentane-1-carboxylic acid] | 1 to 10 | – |
| CC1(CCB(O)O)CCC(N)(C(=O)O)C1 (racemic) [Example 3, 1-amino-3-(2-boronoethyl)-3-methylcyclopentane-1-carboxylic acid] | > 100 | > 100 |
| N[C@@]1(C(=O)O)C[C@H](CCB(O)O)[C@@H](O)C1 (racemic) [Example 4, rac-(1S,3S,4S)-1-Amino-3-(2-boronoethyl)-4-hydroxycyclopentane-1-carboxylic acid hydrochloride] | 10 to 100 | 10 to 100 |
| N[C@]1(C(=O)O)C[C@H](CCB(O)O)[C@@H](O)C1 (racemic) [Example 5, rac-(1R,3S,4S)-1-Amino-3-(2-boronoethyl)-4-hydroxycyclopentane-1-carboxylic acid hydrochloride] | > 100 | > 100 |
| NC[C@H]1C[C@](N)(C(=O)O)C[C@@H]1CCB(O)O (racemic) [Example 6, rac-(1S,3S,4S)-1-Amino-3-(aminomethyl)-4-(2-boronoethyl)cyclopentane-1-carboxylic acid dihydrochloride] | 1 to 10 | 1 to 10 |
| NC[C@H]1C[C@@](N)(C(=O)O)C[C@@H]1CCB(O)O (racemic) [Example 7, rac-(1R,3S,4S)-1-Amino-3-(aminomethyl)-4-(2-boronoethyl)cyclopentane-1-carboxylic acid dihydrochloride] | – | 1 to 10 |
| N[C@]1(C(=O)O)C[C@H](CCB(O)O)CC[C@H]1O (racemic) [Example 13, rac-(1R,2R,5R)-1-Amino-5-(2-boronoethyl)-2-hydroxycyclohexane-1-carboxylic acid hydrochloride] | 10 to 100 | 0.1 to 1 |
| CN(C)C[C@@H]1CC[C@@H](CCB(O)O)C[C@]1(N)C(=O)O (racemic) [Example 17, rac-(1R,2S,5R)-1-Amino-5-(2-boronoethyl)-2-((dimethylamino)methyl)-cyclohexane-1-carboxylic acid dihydrochloride] | – | 0.001 to 0.1 |
| N[C@]1(C(=O)O)C[C@H](CCB(O)O)CC[C@H]1CN1Cc2ccccc2C1 (racemic) [Example 29, rac-(1R,2S,5R)-1-amino-5-(2-boronoethyl)-2-(isoindolin-2-ylmethyl)cyclohexanecarboxylic acid dihydrochloride] | – | 0.1 to 1 |
| CN(C)C[C@@H]1C[C@@H](CCB(O)O)CC(N)(C(=O)O)C1 (mixture of isomers) [Example 55, rac-(3R,5R)-1-amino-3-(2-boronoethyl)-5-((dimethylamino)methyl)cyclohexanecarboxylic acid dihydrochloride] | – | 1 to 10 |
| N[C@@]1(C(=O)O)CNC[C@H](CCB(O)O)C1 (racemic) [Example 58, rac-(3R,5R)-3-amino-5-(2-boronoethyl)piperidine-3-carboxylic acid] | – | 10 to 100 |
| N[C@@]1(C(=O)O)COC[C@H](CCB(O)O)C1 (racemic) [Example 60, rac-(3R,5R)-3-amino-5-(2-boronoethyl)tetrahydro-2H-pyran-3-carboxylic acid hydrochloride] | – | 10 to 100 |
| CN(C)C1CCC(CCB(O)O)CC1(N)C(=O)O (racemic) [Example 64, rac-(1R,5R)-1-amino-5-(2-boronoethyl)-2-(dimethylamino)cyclohexane-1-carboxylic acid dihydrochloride] | – | 10 to 100 |
| NC1(C(=O)O)CC(CCB(O)O)N(Cc2ccccc2)C1 (centres unmarked) [Example 8, 3-Amino-1-benzyl-5-(2-boronoethyl)pyrrolidine-3-carboxylic acid dihydrochloride] | – | > 100 |
| N[C@]1(C(=O)O)C[C@H](CCB(O)O)CC[C@H]1CN1CCCC1 [Example 23, (1R,2S,5R)-1-Amino-5-(2-boronoethyl)-2-(pyrrolidin-1-ylmethyl)-cyclohexane-1-carboxylic acid dihydrochloride] | – | 0.001 to 0.1 |
| CC([C@@H]1CC[C@@H](CCB(O)O)C[C@]1(N)C(=O)O)N(C)C (stereo partly drawn) [Example 42, (1R,2S,5R)-1-amino-5-(2-boronoethyl)-2-(1-(dimethylamino)ethyl)cyclohexanecarboxylic acid dihydrochloride] | – | 10 to 100 |
| COC(=O)[C@@]1(N)C[C@H](CCB(O)O)CC[C@H]1CN(C)C [Example 43, (2-((1R,3R,4S)-3-amino-4-((dimethylamino)methyl)-3-(methoxycarbonyl)cyclohexyl)ethyl)boronic acid dihydrochloride] | – | 10 to 100 |
| NCC1CC(CCB(O)O)CC1(N)C(=O)O (centres unmarked) [Example 66, 1-amino-2-(aminomethyl)-4-(2-boronoethyl)cyclopentane-1-carboxylic acid dihydrochloride] | – | 0.1 to 1 |

The remaining lines, values ahead:

| IC50 [1] [µM] | IC50 [2] [µM] | Structure (SMILES) |
| --- | --- | --- |
| > 100 | > 100 | C[C@H]1[C@H](CCB(O)O)CCC1(N)C(=O)O (mixture of isomers) [Example 2, rac-(2S,3R)-1-amino-3-(2-boronoethyl)-2-methylcyclopentane-1-carboxylic acid] |
| – | 10 to 100 | N[C@]1(C(=O)O)CCC[C@@H](CCB(O)O)C1 (racemic) [Example 11, rac-(1R,3R)-1-Amino-3-(2-boronoethyl)cyclohexane-1-carboxylic acid hydrochloride] |
| – | 10 to 100 | N[C@@]1(C(=O)O)C[C@H](CCB(O)O)CC[C@H]1O (racemic) [Example 14, rac-(1S,2R,5R)-1-Amino-5-(2-boronoethyl)-2-hydroxycyclohexane-1-carboxylic acid hydrochloride] |
| – | 0.001 to 0.1 | NC1(C(=O)O)CC(CCB(O)O)CCC1CCN1CCCC1 (racemic) [Example 25, 1-Amino-5-(2-boronoethyl)-2-(2-(pyrrolidin-1-yl)ethyl)cyclohexane-1-carboxylic acid dihydrochloride] |
| – | 0.1 to 1 | N[C@]1(C(=O)O)C[C@H](CCB(O)O)CC[C@H]1CN1CCC(c2ccc(Cl)cc2)CC1 (racemic) [Example 27, rac-(1R,2S,5R)-1-amino-5-(2-boronoethyl)-2-((4-(4-chlorophenyl)piperidin-1-yl)methyl)cyclohexanecarboxylic acid dihydrochloride] |
| – | 10 to 100 | CN(C)CC1CC(CCB(O)O)CC1(N)C(=O)O (racemic) [Example 67, 1-amino-4-(2-boronoethyl)-2-((dimethylamino)methyl)cyclopentane-1-carboxylic acid] |
| – | 1 to 10 | NC1(C(=O)O)CC(CCB(O)O)CCC1CN1CCOCC1 (centres unmarked) [Example 20, 1-Amino-5-(2-boronoethyl)-2-(morpholinomethyl)cyclohexane-1-carboxylic acid dihydrochloride] |
| – | 1 to 10 | NC1(C(=O)O)CC(CCB(O)O)CCC1CO (centres unmarked) [Example 49, 1-amino-5-(2-boronoethyl)-2-(hydroxymethyl)cyclohexanecarboxylic acid hydrochloride] |
